Test results as given in patent US20250338846A1, “COMPOSITIONS HAVING PESTICIDAL UTILITY AND PROCESSES RELATED THERETO” (CORTEVA AGRISCIENCE, LLC, priority 2022, published 2025).

Experiments:
Assay type in all cases: in vivo
[1] = system: Sweet Potato Whitefly (Bemisia tabaci, BEMITA); assay: Bioassay 2: Sweet Potato Whitefly, spray on cotton seedlings at crawler emergence, nymphs counted 7-9 days after treatment
Protocol: (§1) Stock solutions were prepared with Formula One as well as for each of the active ingredients individually. Test solutions were prepared from the stock solutions. Test solutions were prepared containing Formula One, the individual active ingredients, and mixtures of Formula One with each of the active ingredients. The test solutions for Formula One and the individual active ingredients were prepared by adding 500 μL of stock solution to a 25 mL glass vial, then adding 500 μL of acetone, followed by the addition of 9 mL water with 0.025% Tween®) 20 to create a 0.001% (w/v) solution. The test solutions containing mixtures of Formula One and the individual active ingredients were prepared by adding 500 μL of the active ingredient stock solution to a 25 mL glass vial, followed by 500 μL of the Formula One stock solution, then by the addition of 9 mL water with 0.025% Tween®) 20 to create a test solution containing 0.001% (w/v) Formula One and 0.001% (w/v) of the active ingredient. Each test solution was serially diluted to create desired doses of test solutions (0.001% (w/v), 0.0001% (w/v), 0.00001% (w/v), 0.000001% (w/v), 0.0000001% (w/v), and 0.00000001% (w/v)).
(§2) The test solutions were tested against SPW using the following procedure: Cotton seedlings grown in 3-inch pots, pruned so that only one true leaf remained, were used as test substrate. Adult B. tabaci were allowed to colonize the cotton plants and lay eggs for 24 hours after which all adults were removed from the plants using compressed air. Plants were monitored for egg development and, when crawler emergence was underway (>25% emergence based on visual examination using a microscope), the plants were sprayed using the test solutions and methods described above for green peach aphids (GPA). Treated plants were held in a holding room at approximately 25° C. and ambient relative humidity (RH) prior to grading. Evaluation was conducted by counting the number of developed 2-3 instar nymphs per plant under a microscope 7-9 days after treatment. Percent control was measured using Abbott's correction formula (W. S. Abbott, J. Econ. Entomol. 18 (1925), pp. 265-267) as follows:
where X=No. of live nymphs on solvent check plants and Y=No. of live nymphs on treated plants. In Table B2 the “Expected % Control” was calculated using the method described in Colby S. R., Weeds, 1967, 15, 20-22. Bioassay 3: Western Flower Thrips (Frankliniella occidentalis, FRANOC) (“WFT”).

[2] = system: Diamondback Moth (Plutella xylostella, PLUTMA); assay: Bioassay 6: Diamondback Moth, artificial lepidopteran diet, live larvae after 5 days; conditions: DBM; AI alone 0.04 % w/v
Protocol: where X=No. of live nymphs on solvent check and Y=No. of live nymphs on treated bean segments. In Table B5 the “Expected % Control” was calculated using the method described in Colby S. R., Weeds, 1967, 15, 20-22. Bioassay 6: Beet Armyworm (Spodoptera exigua, LAPHEG) (BAW), and Diamondback Moth (Plutella xylostella, PLUTMA) (DBM).
(§3) Stock solutions were prepared with Formula One as well as for each of the active ingredients individually. Test solutions were prepared from the stock solutions. Test solutions were prepared containing Formula One, the individual active ingredients, and mixtures of Formula One with each of the active ingredients. The test solution for Formula One was prepared by adding 500 μL of the stock solution to a 25 mL glass vial, then adding 500 μL of a 9:1 mixture of acetone: water. The individual active ingredients were prepared by adding 500 μL of stock solution to a 25 mL glass vial, then adding 500 μL of a 9:1 mixture of acetone: water. The test solutions containing mixtures of Formula One and the individual active ingredients were prepared by adding 500 μL of the active ingredient stock solution to a 25 mL glass vial, followed by 500 μL of the Formula One stock solution, creating a test solution containing 4000 ppm Formula One and 0.4% (w/v) of the active ingredient. Each test solution was serially diluted to create desired doses of test solutions (0.4% (w/v), 0.04% (w/v), 0.004% (w/v), 0.0004% (w/v), 0.00004% (w/v), and 0.000004% (w/v)). In test solutions containing mixtures of Formula One and the active ingredients, the active ingredients were diluted as described above, but the Concentration of Formula One was held constant (0.4% (w/v)). The highest dose test solution (0.4% (w/v)) was discarded, leaving 5 test solution concentrations used in the test.
The test solutions were tested against BAW and DBM using the following procedure: An artificial lepidopteran diet (Multispecies Lepidopteran Diet, Southland Products) was distributed in 128-cell bioassay trays (Frontier Agricultural Sciences™). 50 μL of test solution was pipetted into a cell in the bioassay tray. (The test solution doses of 0.04% (w/v), 0.004% (w/v), 0.0004% (w/v), 0.00004% (w/v), and 0.000004% (w/v) translated to concentrations of 5, 0.5, 0.05, 0.005, and 0.0005 ug/cm^2 on the diet, respectively.) A reference treatment (solvent check) was treated with the diluent only. […] After 5 days, the number of live larvae were recorded from each cell and percent control was measured using Abbott's correction formula (W. S. Abbott, J. Econ. Entomol. 18 (1925), pp. 265-267) as follows:
where X=No. of live larvae on solvent check and Y=No. of live larvae on treated diet. In Table B6 the “Expected % Control” was calculated using the method described in Colby S. R., Weeds, 1967, 15, 20-22. […]

[3] = system: Diamondback Moth (Plutella xylostella, PLUTMA); assay: Bioassay 9: Diamondback Moth, leaves of track-sprayed cabbage plants, mortality and feeding damage scored
Protocol: (§4) where X=No. of live nymphs on solvent check plants and Y=No. of live nymphs on treated plants. In Table B2 the “Expected % Control” was calculated using the method described in Colby S. R., Weeds, 1967, 15, 20-22. Bioassay 9: Diamondback Moth (Plutella xylostella, PLUTMA) (DBM).
as §3
Cabbage seedlings, grown in 3-inch pots with 2-3 small (3-5 centimeter (cm)) true leaves, were used as test substrate. Cabbage plants were sprayed with desired concentrations of Formula One and active ingredients or their mixtures using a track Sprayer. Reference plants (solvent check) were sprayed with diluent only (0.025% Tween® 20 and 10% acetone:methanol (1:1) in water). The sprayed cabbage plants were allowed to dry for 1 hour, after which leaves from each treatment were placed in a cell of a plastic tray. One leaf per cell and 8 replicates for each cell. The tested doses ranged between 0.000001% (w/v) to 0.0002% (w/v). One 2nd instar DBM larvae were placed in each cell of the tray and allowed to feed on the cabbage foliage for […] after which the mortality and feeding damage were scored. Test trays were held at approximately 26° C. and ambient relative humidity (RH) prior to grading. The number of live larvae were recorded from each cell and percent control was measured using Abbott's correction formula (W. S. Abbott, J. Econ. Entomol. 18 (1925), pp. 265-267) as follows:
where X=No. of live larvae on solvent check and Y=No. of live larvae on treated diet. In Table B6 the “Expected % Control” was calculated using the method described in Colby S. R., Weeds, 1967, 15, 20-22.

[4] = system: Cotton Aphid (Aphis gossypii, APHIGO); assay: Bioassay 7: Cotton Aphid, foliar spray on infested cotton seedlings, live aphids counted three days after treatment
Protocol: where X=No. of live larvae on solvent check and Y=No. of live larvae on treated diet. In Table B6 the “Expected % Control” was calculated using the method described in Colby S. R., Weeds, 1967, 15, 20-22. Bioassay 7: Cotton Aphid (Aphis gossypii, APHIGO) (“CA”).
Stock solutions of Formula One and one or more of the active ingredients were prepared at concentrations of 1 mg/mL using a 1:1 mixture of acetone: methanol as a diluent. The stock solutions were prepared with Formula One as well as for each of the active ingredients individually. Test solutions were prepared from the stock solutions. Test solutions were prepared containing Formula One, the individual active ingredients, and mixtures of Formula One with each of the active ingredients. The test solutions for Formula One and the individual active ingredients were prepared by adding 1.5 mL of stock solution to a 30 mL glass vial, then adding 1.5 mL of 1:1 acetone: methanol solvent, followed by the addition of 27 mL water with 0.025% Tween® 20 to create a […]. Each test solution was serially diluted to create desired doses of test solutions ranging from 0.000001 to 0.0025% (w/v). The test solutions were tested against CA using the following procedure: cotton seedlings were grown in 3-inch pots with one true leaf (2-5 cm in diameter) were used as test substrate. The seedlings were infested with 20-50 CA (wingless adult and nymph stages) one day prior to chemical application. Four pots with individual seedlings were used for each treatment. A hand-held aspirator-type sprayer was used for spraying a solution to both sides of […] leaves until runoff. Reference plants (solvent check) were sprayed with the diluent only (0.025% Tween® 20 and 10% acetone:methanol (1:1) in water). Treated plants were held in a holding room for three days at approximately 25° C. and ambient relative humidity (RH about 20% to about 45%) prior to grading. Evaluation was conducted by counting the number of live aphids per plant under a microscope three days after treatment. Percent control was measured using Abbott's correction formula (W. S. Abbott, J. Econ. Entomol. 18 (1925), pp. 265-267) as follows:
(§5) where X=No. of live aphids on solvent check plants and Y=No. of live aphids on treated plants. In Table B1 the “Expected % Control” was calculated using the method described in Colby S. R., Weeds, 1967, 15, 20-22. Bioassay 8: Sweet Potato Whitefly (Bemisia tabaci, BEMITA) (“SPW”).

[5] = system: Sweet Potato Whitefly (Bemisia tabaci, BEMITA); assay: Bioassay 8: Sweet Potato Whitefly, spray on cotton seedlings at crawler emergence, nymphs counted 7-9 days after treatment; conditions: AI alone 0.1 (10^-5) Wt %
Protocol: as §5
as §1, with “0.0000001% (w/v), […] and 0.00000001%” for “0.0000001% (w/v), and 0.00000001%”
as §2, §4

C[C@]1(COC(=O)C2CC2)[C@@H]2C[C@H](O)[C@@]3(C)Oc4cc(-c5cccnc5)oc(=O)c4[C@H](O)[C@@H]3[C@@]2(C)CC[C@@H]1OC(=O)C1CC1 [Afidopyropen]
Average % Control AI ([1]; AI alone 0.1 (10-5) % w/v): 0%
Average % Control AI ([1]; AI alone 1 (10-5) % w/v): 0%
Average % Control AI [2]: 25%

CC1(C)[C@H](C(=O)O[C@H](C#N)c2cccc(Oc3ccccc3)c2)[C@@H]1C=C(Br)Br [Deltamethrin]
Average % Control AI ([3]; AI alone 5 (10^-5) Wt %): 30.43%
Average % Control AI ([3]; AI alone 10 (10^-5) Wt %): 15.22%
Average % Control AI ([3]; AI alone 20 (10^-5) Wt %): 30.43%
Average % Control A1 ([4]; AI alone 0.78 (10^-5) Wt %): 26.73%
Average % Control A1 ([4]; AI alone 2.5 (10^-5) Wt %): 34.23%
Average % Control A1 ([4]; AI alone 10 (10^-5) Wt %): 34.23%
Average % Control A1 [5]: 35.94%

Cc1cc(C)c(C2=C(OC(=O)CC(C)(C)C)C3(CCCC3)OC2=O)c(C)c1 [Spiromesifen]
Average % Control AI ([1]; AI alone 0.1 (10-5) % w/v): 0%
Average % Control AI [2]: 0%

Tetraniliprole
Average % Control AI ([3]; AI alone 0.1 (10^-5) Wt %): 16.67%
Average % Control AI ([3]; AI alone 1 (10^-5) Wt %): 50.00%
Average % Control AI ([3]; AI alone 5 (10^-5) Wt %): 41.67%
Average % Control A1 ([4]; AI alone 0.1 (10^-5) Wt %): 44.54%
Average % Control A1 ([4]; AI alone 0.8 (10^-5) Wt %): 7.23%
Average % Control A1 [5]: 40.00%
